Data on five compounds can be found in EP0035270A2, “Heterocyclic compounds, compositions thereof, their preparation and use” (THE WELLCOME FOUNDATION LIMITED, priority 1980, dated 1981).

One data set can be described thus: LD50's in mice. The note with it: mouse, in vivo, ip; i.p. administration to mice. On the procedure:
The LD50's of compounds of formula were determined by conventional techniques by i.p. administration to mice.

Data set [1] is described as follows: Effect of 1-n-decyl pyrazolidin-3-one on rat bodyweight and food consumption. The class given is in vivo, Male Sprague-Dawley rats. The protocol: Male Sprague-Dawley rats were acclimatized as described in Example 6. The Rats (approx. 300 grams) were housed individually to present measurement of food consumption as well as bodyweight. Animals were treated once daily by oral […] guage either with saline or with 1-n-decyl pyrazolidin-3-one (25 mg/kg) in saline vehicle. Measurement of bodyweight and food consumption was […] during the recovery days, when treatment with drug has stopped.

Data set [2] in a line: Effect of varying daily oral doses of 1-n-decyl pyrazolidin-3-one on rat bodyweight. The note with it: for Percent Change from Initial Bodyweight (Mean ± S.E.M.) Day 5: Day 5, rats approx. 575 grams; for Percent Change from Initial Bodyweight (Mean ± S.E.M.) Day 10: Day 10, rats approx. 575 grams. The class given is in vivo, Male Sprague-Dawley rats. On the procedure: Male Sprague-Dawley rats were acclimatized to laboratory conditions for approximately four weeks prior to the experiment being carried out. The rats were maintained on a 12 hr/12 hr light dark cycle and had continuous access to food and water. Rats weighing approx. 575 grams were housed 4 to a cage and each rat treated daily with an oral injection of either saline vechicle or one of three doses of 1-n-decylpyrazolidinone dissolved in saline vehicle. The saline vehicle was prepared fresh each day.

The nature of data set [3]: Effect of pyrazolidinones on bodyweight of rats (single oral dose). As to conditions: 0.22 m moles/kilogram bodyweight, two days after administration. The class given is in vivo. On the procedure: The compound of formula (I) prepared by the methods described in Examples 1 and 2 were administered orally to rats at a dose corresponding to 0.22 m moles/kilogram bodyweight. Two days after administration the weight of the treated rats was compared with control and the difference expressed as a percentage of the weight of the control animals.

The structures appear in SMILES notation.

One may read the LD50 as the dose at which mortality reaches 50%. Regarding `CCCCCCCCCCCN1CCC(=O)N1.Cl` [n-undecyl, 1-(n-undecyl)-3-pyrazolidone hydrochloride], the LD50 in the data set “LD50's in mice” is 350 mg/kg.
In turn, `CCCCCCCCCCCCCCN1CCC(=O)N1.Cl` [CH3(CH2)13-, 1-(n-tetradecyl)-3-pyrazolidone hydrochloride] had a 50% lethal dose (LD50) in the data set “LD50's in mice” of 350 mg/kg.
For `CCCCCCCCCCN1CCC(=O)N1.Cl` [n-decyl, 1-(n-decyl)-3-pyrazolidone hydrochloride], the “Percent change in amount of food consumed (Mean ± S.E.M.)” value in data set [1] (25 mg/kg p.o. once daily, Treatment Day 2) is -1 ±6%; in data set [1] (after 25 mg/kg p.o. once daily, Recovery Day 2 (treatment stopped)), -8 ±7%; in data set [1] (after 25 mg/kg p.o. once daily, Recovery Day 3 (treatment stopped)), “+13 ±8%”. Moreover, the “Percent Change from Initial Bodyweight (Mean ± S.E.M.) Day 5” value in data set [2] (10 mg/kg p.o. daily) is -2.7 ± 0.3%; in data set [2] (15 mg/kg p.o. daily) it was -3.3 ± 1.0%; in data set [2] (20 mg/kg p.o. daily) it was -3.8 ± 0.6%. Moreover, the “Percent Change from Initial Bodyweight (Mean ± S.E.M.) Day 10” value in data set [2] (10 mg/kg p.o. daily) is recorded as -1.1 ± 0.4%; in data set [2] (15 mg/kg p.o. daily), -9.6 ± 1.7%; in data set [2] (20 mg/kg p.o. daily), -11.1 ± 1.8%. For the same compound, the “% weight deviation from control” value in data set [3] is on record as -10.9%. In “LD50's in mice”, this compound registered a 50% lethal dose (LD50) of 500 mg/kg.
Compound `CCCCCCCCN1CCC(=O)N1.Cl` [n-octyl, 1-(n-octyl)-3-pyrazolidone hydrochloride] displayed a 50% lethal dose (LD50) in “LD50's in mice” of 250 mg/kg.
On to `CCCCCCCCCN1CCC(=O)N1.Cl` [n-nonyl, 1-(n-nonyl)-3-pyrazolidone hydrochloride], for which the median lethal dose (LD50) in “LD50's in mice” was 210 mg/kg.
